Experimental data: ChEMBL document CHEMBL2177093, “The design and identification of brain penetrant inhibitors of phosphoinositide 3-kinase α” (J Med Chem, 2012)
The source made the active and inactive calls. The rule behind the calls is not given here.

Tests used:
[1] = in vitro; conditions: human, liver microsomes
[2] = system: mouse Bcrp1; test: in vitro; conditions: dog
[3] = target: Phosphatidylinositol 4,5-bisphosphate 3-kinase catalytic subunit alpha isoform (Homo sapiens, UniProt P42336); test: Inhibition of PI3Kalpha assessed as reduction in PIP3 formation after 30 mins by fluorescence polarization assay
[4] = system: PC-3; test: Antiproliferative activity against human PC3 cells incubated for 3 days; format: functional, cell-based; conditions: PC-3, 72 h
[5] = Clearance in po dosed CD-1 mouse; format: ADME, organism-based; conditions: in vivo
[6] = Plasma protein binding in CD-1 mouse; format: ADME, cell-free; conditions: read-out: PPB (converted)
[7] = Ratio of drug level in brain to plasma in CD-1 mouse at 25 mg/kg, po at 6 hrs; format: ADME, organism-based; design: dose 25 mg/kg, route oral; conditions: read-out: BPR
[8] = Ratio of drug level in brain to plasma in CD-1 mouse at 25 mg/kg, po at 1 hr; format: ADME, organism-based; design: dose 25 mg/kg, route oral; conditions: read-out: BPR
[9] = Oral bioavailability in CD-1 mouse; format: ADME, organism-based; conditions: in vivo
[10] = Half life in po dosed CD-1 mouse; format: ADME, organism-based; conditions: in vivo
[11] = target: Serine/threonine-protein kinase mTOR (Homo sapiens, UniProt P42345); test: Inhibition of human recombinant mTOR (1360 to 2549 amino acids) assessed as reduction in phosphorylation of (GFP)-4-EBP1 after 30 mins by FRET assay; conditions: read-out: Ki(app)
[12] = Cytotoxicity against human A172 cells incubated for 4 days; format: functional, cell-based; conditions: A 172, 96 h
[13] = organism: Mus musculus; conditions: NCr, U-87MG ATCC, 3 mg/kg
[14] = organism: Mus musculus; conditions: NCr, U-87MG ATCC, 10 mg/kg
[15] = Drug uptake in healthy mouse brain at 50 mg/kg after 1 hr; format: ADME, organism-based; design: dose 50 mg/kg; conditions: read-out: Drug uptake
[16] = Drug level in CD-1 mouse brain at 50 mg/kg, po administered as single dose measured after 1 hr post dose; format: ADME, organism-based; design: dose 50 mg/kg, route oral; conditions: read-out: Drug uptake
[17] = Ratio of drug level in brain to plasma in CD-1 mouse at 50 mg/kg, po at 1 hr; format: ADME, organism-based; design: dose 50 mg/kg, route oral; conditions: read-out: BPR
[18] = Ratio of drug level in brain to plasma in CD-1 mouse at 50 mg/kg, po at 6 hrs; format: ADME, organism-based; design: dose 50 mg/kg, route oral; conditions: read-out: BPR
[19] = organism: Mus musculus; conditions: NCr, U-87MG ATCC, 3 mg/kg; remark: listed apart in the source
[20] = organism: Mus musculus; conditions: NCr, U-87MG ATCC, 10 mg/kg; remark: listed apart in the source
[21] = system: M059J; test: Cytotoxicity against human M059J cells incubated for 4 days; format: functional, cell-based; conditions: 96 h
[22] = Drug level in CD-1 mouse brain at 50 mg/kg, po administered as single dose measured after 6 hrs post dose; format: ADME, organism-based; design: dose 50 mg/kg, route oral; conditions: read-out: Drug uptake
[23] = system: Mus musculus; test: Toxicity in PTEN deficient human U87MG cells xenografted in NCr nude mouse assessed as loss in body weight at 30 mg/kg, po qd for 24 days; format: organism-based, U-87MG ATCC; design: dose 30 mg/kg, route oral; conditions: in vivo, 576 h
[24] = system: U-87MG ATCC; test: Antitumor activity against PTEN deficient human U87MG cells xenografted in NCr nude mouse assessed as inhibition of tumor growth at 3 to 14 mg/kg, po qd for 24 days; format: functional, organism-based
[25] = Antitumor activity in PTEN deficient human U87MG cells xenografted in NCr nude mouse assessed as loss in body weight at 40 mg/kg, po after 24 days; format: functional, U-87MG ATCC
[26] = organism: Mus musculus; conditions: NCr, U-87MG ATCC, 40 mg/kg
[27] = Cytotoxicity against human Hs683 cells incubated for 4 days; format: functional, cell-based; conditions: Hs 683, 96 h
[28] = system: SF-539; test: Cytotoxicity against human SF539 cells incubated for 4 days; format: functional, cell-based; conditions: SF-539, 96 h
[29] = system: Mus musculus; test: Toxicity in PTEN deficient human U87MG cells xenografted in NCr nude mouse assessed as loss in body weight at 50 mg/kg, po qd for 24 days; format: organism-based, U-87MG ATCC; design: dose 50 mg/kg, route oral; conditions: in vivo, 576 h
[30] = Drug uptake in NCr nude mouse brain xenografted with PTEN deficient human U87MG cells at 40 mg/kg after 1 hr; format: ADME, organism-based, U-87MG ATCC; design: dose 40 mg/kg; conditions: read-out: Drug uptake
[31] = organism: Mus musculus; conditions: NCr, U-87MG ATCC, 40 mg/kg; remark: listed apart in the source
[32] = Cytotoxicity against human LN229 cells incubated for 4 days; format: functional, cell-based; conditions: LN-229, 96 h
[33] = system: Mus musculus; test: Inhibition of PI3K signaling in CD-1 mouse assessed as reduction in pAKT level at 50 mg/kg, po administered as single dose measured after 1 hr post dose by immunoblotting method; format: functional; conditions: CD-1, 1 h
[34] = system: SF-268; test: Cytotoxicity against human SF268 cells incubated for 4 days; format: functional, cell-based; conditions: SF-268, 96 h
[35] = system: Mus musculus; test: Inhibition of PI3K signaling in CD-1 mouse assessed as reduction in pAKT level at 50 mg/kg, po administered as single dose measured after 6 hrs post dose by immunoblotting method; format: functional; conditions: CD-1, 6 h
[36] = target: Phosphatidylinositol 4-phosphate 3-kinase C2 domain-containing subunit beta (Homo sapiens) (UniProt O00750); test: Inhibition of PI3KC2beta at 1 uM
[37] = Toxicity in PTEN deficient human U87MG cells xenografted in NCr nude mouse at dosed orally once daily for 24 days; format: organism-based, U-87MG ATCC; conditions: in vivo, po
[38] = Cytotoxicity against human U87MG cells incubated for 4 days; format: functional, cell-based, U-87MG ATCC; conditions: U-87 MG, 96 h
[39] = Clearance in rat; format: ADME, organism-based; conditions: in vivo
[40] = system: Mus musculus; test: Toxicity in PTEN deficient human U87MG cells xenografted in NCr nude mouse assessed as loss in body weight at 6 mg/kg, po qd for 24 days; format: organism-based, U-87MG ATCC; design: dose 6 mg/kg, route oral; conditions: in vivo, 576 h
[41] = Drug level in CD-1 mouse brain at 25 mg/kg, po administered as single dose measured after 6 hrs post dose; format: ADME, organism-based; design: dose 25 mg/kg, route oral; conditions: read-out: Drug uptake
[42] = system: Mus musculus; test: Inhibition of PI3K signaling in CD-1 mouse assessed as reduction in pAKT level at 25 mg/kg, po administered as single dose measured after 1 hr post dose by immunoblotting method; format: functional; conditions: CD-1, 1 h
[43] = Drug level in CD-1 mouse brain at 25 mg/kg, po administered as single dose measured after 1 hr post dose; format: ADME, organism-based; design: dose 25 mg/kg, route oral; conditions: read-out: Drug uptake
[44] = system: Mus musculus; test: Toxicity in PTEN deficient human U87MG cells xenografted in NCr nude mouse assessed as loss in body weight at 18 mg/kg, po qd for 24 days; format: organism-based, U-87MG ATCC; design: dose 18 mg/kg, route oral; conditions: in vivo, 576 h
[45] = system: Mus musculus; test: Toxicity in PTEN deficient human U87MG cells xenografted in NCr nude mouse assessed as loss in body weight at 14 mg/kg, po qd for 24 days; format: organism-based, U-87MG ATCC; design: dose 14 mg/kg, route oral; conditions: in vivo, 576 h

Phosphatidylinositol 4,5-bisphosphate 3-kinase catalytic subunit alpha isoform, sequence (P42336 whole entry, canonical isoform): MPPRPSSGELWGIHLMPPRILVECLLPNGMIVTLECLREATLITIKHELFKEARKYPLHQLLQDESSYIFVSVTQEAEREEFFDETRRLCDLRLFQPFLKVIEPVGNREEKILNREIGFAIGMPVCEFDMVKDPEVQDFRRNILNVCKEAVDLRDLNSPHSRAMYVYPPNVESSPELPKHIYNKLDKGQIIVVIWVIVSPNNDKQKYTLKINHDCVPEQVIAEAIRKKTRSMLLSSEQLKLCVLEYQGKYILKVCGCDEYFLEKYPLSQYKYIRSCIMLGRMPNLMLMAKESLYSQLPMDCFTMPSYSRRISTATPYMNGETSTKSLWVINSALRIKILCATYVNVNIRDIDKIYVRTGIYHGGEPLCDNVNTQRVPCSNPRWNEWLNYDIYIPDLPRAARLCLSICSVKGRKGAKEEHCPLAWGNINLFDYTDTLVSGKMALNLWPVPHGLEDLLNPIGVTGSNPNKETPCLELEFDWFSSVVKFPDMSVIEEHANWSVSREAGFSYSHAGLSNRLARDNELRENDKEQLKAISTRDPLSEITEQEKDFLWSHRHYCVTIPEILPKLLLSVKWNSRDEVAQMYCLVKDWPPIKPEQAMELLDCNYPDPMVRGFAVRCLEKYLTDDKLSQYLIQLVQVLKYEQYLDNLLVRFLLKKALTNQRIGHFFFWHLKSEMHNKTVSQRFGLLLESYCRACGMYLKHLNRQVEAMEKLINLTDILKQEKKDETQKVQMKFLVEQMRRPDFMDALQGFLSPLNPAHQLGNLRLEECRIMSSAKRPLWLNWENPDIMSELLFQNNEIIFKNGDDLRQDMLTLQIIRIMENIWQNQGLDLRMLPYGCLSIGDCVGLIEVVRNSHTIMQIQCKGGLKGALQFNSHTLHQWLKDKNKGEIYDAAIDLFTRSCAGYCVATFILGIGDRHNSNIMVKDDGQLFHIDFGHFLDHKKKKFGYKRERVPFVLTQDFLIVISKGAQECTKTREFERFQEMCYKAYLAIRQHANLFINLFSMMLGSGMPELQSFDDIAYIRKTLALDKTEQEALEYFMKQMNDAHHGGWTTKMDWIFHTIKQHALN
Phosphatidylinositol 4-phosphate 3-kinase C2 domain-containing subunit beta (Homo sapiens), sequence (O00750 whole entry, the tested form may be a part): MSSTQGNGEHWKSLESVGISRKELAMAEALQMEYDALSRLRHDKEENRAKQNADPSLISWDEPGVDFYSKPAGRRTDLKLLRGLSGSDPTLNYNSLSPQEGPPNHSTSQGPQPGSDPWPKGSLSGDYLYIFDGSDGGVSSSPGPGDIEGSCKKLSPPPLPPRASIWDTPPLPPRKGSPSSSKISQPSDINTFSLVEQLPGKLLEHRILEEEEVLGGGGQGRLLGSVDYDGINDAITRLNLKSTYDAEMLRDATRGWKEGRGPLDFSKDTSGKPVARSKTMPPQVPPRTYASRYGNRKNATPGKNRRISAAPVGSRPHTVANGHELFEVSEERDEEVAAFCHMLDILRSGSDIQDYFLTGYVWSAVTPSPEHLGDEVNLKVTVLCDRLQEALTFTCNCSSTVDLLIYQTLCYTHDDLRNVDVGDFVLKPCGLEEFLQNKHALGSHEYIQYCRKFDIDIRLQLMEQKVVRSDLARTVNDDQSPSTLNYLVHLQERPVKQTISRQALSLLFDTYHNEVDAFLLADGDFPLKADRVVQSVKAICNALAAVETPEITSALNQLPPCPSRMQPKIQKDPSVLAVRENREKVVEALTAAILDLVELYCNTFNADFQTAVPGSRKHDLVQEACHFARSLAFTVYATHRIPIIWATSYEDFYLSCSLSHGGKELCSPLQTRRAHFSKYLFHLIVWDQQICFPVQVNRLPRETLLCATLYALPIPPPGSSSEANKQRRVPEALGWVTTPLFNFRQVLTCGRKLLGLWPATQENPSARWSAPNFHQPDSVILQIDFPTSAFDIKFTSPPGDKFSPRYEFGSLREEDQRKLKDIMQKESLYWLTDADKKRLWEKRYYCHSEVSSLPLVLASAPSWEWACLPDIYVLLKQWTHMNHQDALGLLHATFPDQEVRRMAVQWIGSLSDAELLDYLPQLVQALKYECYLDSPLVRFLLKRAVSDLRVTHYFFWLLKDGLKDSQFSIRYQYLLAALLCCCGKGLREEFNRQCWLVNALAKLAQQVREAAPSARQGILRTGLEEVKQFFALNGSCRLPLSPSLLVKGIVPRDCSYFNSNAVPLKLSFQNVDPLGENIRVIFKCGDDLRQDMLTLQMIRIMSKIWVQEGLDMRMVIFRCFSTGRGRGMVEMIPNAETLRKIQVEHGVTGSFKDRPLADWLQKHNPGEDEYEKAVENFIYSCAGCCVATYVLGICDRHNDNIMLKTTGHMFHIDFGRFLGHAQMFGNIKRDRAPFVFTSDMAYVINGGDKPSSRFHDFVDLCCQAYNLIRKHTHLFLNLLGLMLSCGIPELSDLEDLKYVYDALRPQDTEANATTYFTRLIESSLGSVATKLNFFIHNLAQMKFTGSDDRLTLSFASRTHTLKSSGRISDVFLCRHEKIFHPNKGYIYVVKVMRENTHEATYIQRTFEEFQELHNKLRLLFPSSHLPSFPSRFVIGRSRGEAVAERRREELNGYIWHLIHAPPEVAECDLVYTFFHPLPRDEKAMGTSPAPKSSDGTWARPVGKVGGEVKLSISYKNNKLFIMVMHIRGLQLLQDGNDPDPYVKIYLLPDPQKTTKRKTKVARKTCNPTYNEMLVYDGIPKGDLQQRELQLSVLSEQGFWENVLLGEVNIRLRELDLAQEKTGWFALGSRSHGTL

Structure (SMILES): c1cc(-c2nc(N3CCOCC3)c3sccc3n2)c2cn[nH]c2c1
- CLhep predicted [1]: 16 mL/min/kg
- efflux ratio at 2 h, 5 µM [2]: 1
- IC50 [3]: 36 nM
- EC50 [4]: 3600 nM

Structure (SMILES): CC1(C)COC1c1cc2nc(-c3cnc(N)nc3)nc(N3CCOCC3)c2s1 (configuration not stated)
- CL/F [5]: 52 mL/min/kg
- fraction unbound [6]: 0.087
- Kp at 6 h [7]: 1.2
- Kp at 1 h [8]: 0.9
- efflux ratio at 2 h, 5 µM [2]: 1.2
- bioavailability [9]: 46%
- half-life [10]: 3.3 h
- Ki [11]: 21 nM

Structure (SMILES): CC(=O)N1CC(c2cc3nc(-c4cnc(N)nc4)nc(N4CCOCC4)c3s2)C1
- efflux ratio at 2 h, 5 µM [2]: 43

Structure (SMILES): COC1(c2sc3c(N4CCOCC4)nc(-c4cnc(N)nc4)nc3c2C)COC1
- EC50 [12]: 240 nM
- CL/F [5]: 32 mL/min/kg
- inhibition [13]: Active
- inhibition [14]: Active
- concentration at 1 h [15]: 3600 nM
- concentration at 1 h [16]: 3640 nM
- Kp at 1 h [17]: 1
- Kp at 6 h [18]: 1
- inhibition [19]: Active
- inhibition [20]: Active
- fraction unbound [6]: 0.15
- EC50 [21]: 330 nM
- concentration at 6 h [22]: 2310 nM
- Activity [23]: Non-toxic
- TGI [24]: Dose-dependent effect
- Activity [25]: <15%
- inhibition [26]: Active
- EC50 [27]: 230 nM
- EC50 [28]: 250 nM
- Activity [29]: > 15%
- concentration at 1 h [30]: 2200 nM
- inhibition [31]: Active
- EC50 [32]: 140 nM
- inhibition in vivo at 50 mg/kg [33]: 62%
- bioavailability [9]: 75%
- EC50 [34]: 570 nM
- half-life [10]: 17 h
- inhibition in vivo at 50 mg/kg [35]: 31%
- inhibition [36]: 77%
- MTD at 576 h [37]: 40 mg/kg
- EC50 [38]: 250 nM

Structure (SMILES): CC(F)(F)c1cc2nc(-c3cnc(N)nc3)nc(N3CCOCC3)c2s1
- efflux ratio at 2 h, 5 µM [2]: 1.7

Structure (SMILES): Cc1csc2c(N3CCOCC3)nc(-c3cnc(N)nc3)nc12
- clearance [39]: 238 mL/min/kg
- CLhep predicted [1]: 11 mL/min/kg
- efflux ratio at 2 h, 5 µM [2]: 1
- IC50 [3]: 9 nM
- EC50 [4]: 364 nM

Structure (SMILES): COC(C)(C)c1cc2nc(-c3cnc(N)nc3)nc(N3CCOCC3)c2s1
- EC50 [12]: 380 nM
- CL/F [5]: 20 mL/min/kg
- inhibition [13]: Active
- inhibition [14]: Active
- inhibition [19]: Active
- inhibition [20]: Active
- Activity [40]: Non-toxic
- fraction unbound [6]: 0.102
- EC50 [21]: 590 nM
- concentration at 6 h [41]: 350 nM
- Kp at 6 h [7]: 0.9
- TGI [24]: Dose-dependent effect
- inhibition [26]: Active
- EC50 [27]: 270 nM
- Kp at 1 h [8]: 1
- EC50 [28]: 340 nM
- inhibition in vivo at 25 mg/kg [42]: 39%
- concentration at 1 h [43]: 2140 nM
- inhibition [31]: Active
- EC50 [32]: 400 nM
- bioavailability [9]: 25%
- EC50 [34]: 1000 nM
- half-life [10]: 20 h
- Activity [44]: Toxic
- MTD at 576 h [37]: 14 mg/kg
- EC50 [38]: 290 nM
- Activity [45]: < 15%
